Data taken from patent US7592143B2, “Methods of treating diseases responsive to induction of apoptosis and screening assays” (Cytovia, Inc., priority 2003, dated 2009).

How the values were obtained:
Transferrin Receptors = Transferrin Receptors (Homo sapiens, UniProt P02786); test: Transferrin receptor binding assay of small molecules: inhibition of biotin-GA binding; settings: 0.75 h; Compounds tested at 20 μM; biotin-GA kept at 1 μM
Procedure: The assay was run similar as described in Example 38. Wells of a 96-well assay plate were coated with 500 ng of HTR in 100 μl of PBS per well overnight at 4° C. These were washed twice with 200 μl of PBS and incubated with 200 μl of 1% BSA solution in PBS and washed twice with 200 μl of PBS. 100 μl of 1 μM biotin-GA solution in binding buffer (PBS/0.1% BSA/0.1% Tween-20) was added per well and incubated for 45 minutes at room temperature. For competition of binding assays biotin-GA was pre-mixed with indicated compounds at various concentrations. Final concentration of DMSO in binding mixtures was adjusted to 1% v/v. Wells were washed 4 times with 200 μl of binding buffer. 100 μl of 100 ng/ml Eu-labeled streptavidin solution in binding buffer were added per well and incubated for 45 minutes at room temperature. Wells were washed twice with 200 μl of binding buffer and twice with 200 μl of PBS. 100 μl of DELFIA Enhancement Solution were added per well and incubated for 10 minutes at room temperature. Plates were read on a Wallac Victor plate reader (Wallac-PerkinElmer Life Sciences) using delayed fluorescence Eu protocol at default manufacturer's settings.
Coated wells with no competing agent added were used to determine total binding (T). Non-coated wells were used to determine background binding (B). Background binding was consistently lower than 20%. Inhibition of binding was calculated as I=(T−BC)/(T−B)*100%, where BC was a reading corresponding to a well with a competing compound C added.
Other controls included assays of Biotin-GA binding to the wells coated with 500 μg/well of BSA or mouse Immunoglobulin G, the secondary reagent (Eu-labeled streptavidin) alone binding to the wells coated with […].

T-47D = test: Caspase cascade activation and induction of apoptosis in solid tumor cells; format: cell-based, Human; settings: 48 h incubation; for Caspase activity (Ratio): ratio of net RFU of test compound to control; for EC50: Homo sapiens, T47D, read-out: Caspase potency EC50; for EC50 / Caspase potency EC50 (nM): 0.016 to 10 μM
Procedure: Human breast cancer cell lines T-47D and DLD-1 were grown according to media component mixtures designated by American Type Culture Collection +10% FCS (Invitrogen Corporation), in a 5% CO2-95% humidity incubator at 37° C. T-47D and DLD-1 cells were maintained at a cell density between 50 and 80% confluency at a cell density of 0.1 to 0.6×10^6 cells/mL. Cells were harvested at 600×g and resuspended at 0.65×10^6 cells/mL into appropriate media +10% FCS. An aliquot of 22.5 μL of cells was added to a well of a 384-well microtiter plate containing 2.5 μL of a 10% DMSO in RPMI-1640 media solution containing 0.16 to 100 μM of test compound (0.016 to 10 μM final). An aliquot of 22.5 μL of cells was added to a well of a 384-well microtiter plate containing 2.5 μL of a 10% DMSO in RPMI-1640 media solution without test compound as the control sample. The samples were mixed by agitation and then incubated at 37° C. for 48 h in a 5% CO2-95% humidity incubator. After incubation, the samples were removed from the incubator and 25 μL of a solution containing 14 μM of N-(Ac-DEVD)-N′-ethoxycarbonyl-R110 (SEQ ID NO.: 41) fluorogenic substrate (Cytovia, Inc.; WO99/18856), 20% sucrose (Sigma), 20 mM DTT (Sigma), 200 mM NaCl (Sigma), 40 mM Na PIPES buffer pH 7.2 (Sigma), and 500 μg/mL lysolecithin (Calbiochem) was added. The samples were mixed by agitation and incubated at room temperature. Using a fluorescent plate reader (Model SPECTRAfluor Plus, Tecan), an initial reading (T=0) was made approximately 1-2 min after addition of the substrate solution, employing excitation at 485 nm and emission at 530 nm, to determine the background fluorescence of the control sample. After the 3 h incubation, the samples were read for fluorescence as above (T=3 h).
The Relative Fluorescence Unit values (RFU) were used to calculate the sample readings as follows: RFU(T=3h)−Control RFU(T=0)=Net RFU(T=3h)
The activity of caspase cascade activation was determined by the ratio of the net RFU value for test compound to that of control samples. The EC50 (nM) was determined by a sigmoidal dose-response calculation (Prism 3.0, GraphPad Software Inc.).

[1] = molecular target: T1, soluble human transferrin receptor (shTR) (Homo sapiens, UniProt P02786); test: Biotin-GA binding to plates coated with soluble human transferrin receptor, Eu-streptavidin detection
T1 construct: soluble human transferrin receptor (shTR); purchased Merck Biosciences, Schwalbach, Germany
T1 sequence (P02786 101-760 limits assumed): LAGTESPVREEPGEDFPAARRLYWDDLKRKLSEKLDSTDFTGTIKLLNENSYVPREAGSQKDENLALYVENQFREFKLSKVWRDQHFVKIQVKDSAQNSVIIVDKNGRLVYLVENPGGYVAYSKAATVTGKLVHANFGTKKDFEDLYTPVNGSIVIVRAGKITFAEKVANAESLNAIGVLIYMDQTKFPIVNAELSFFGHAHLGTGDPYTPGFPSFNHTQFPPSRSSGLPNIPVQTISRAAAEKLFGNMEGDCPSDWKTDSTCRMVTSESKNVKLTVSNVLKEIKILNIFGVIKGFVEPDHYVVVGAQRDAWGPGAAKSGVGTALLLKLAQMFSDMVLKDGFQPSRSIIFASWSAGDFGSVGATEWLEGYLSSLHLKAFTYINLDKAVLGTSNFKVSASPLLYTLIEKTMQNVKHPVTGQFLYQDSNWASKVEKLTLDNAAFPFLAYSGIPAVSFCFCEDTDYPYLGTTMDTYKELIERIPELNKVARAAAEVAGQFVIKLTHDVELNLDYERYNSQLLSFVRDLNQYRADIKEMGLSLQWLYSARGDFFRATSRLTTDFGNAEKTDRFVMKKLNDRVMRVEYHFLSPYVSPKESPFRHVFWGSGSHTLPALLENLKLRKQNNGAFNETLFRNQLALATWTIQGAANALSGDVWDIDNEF
Procedure: FIG. 1A. […] 96-well plates were coated with soluble human transferrin receptor (shTR) (SEQ ID NO. 1) at 375 ng/well and blocked with Bovine Serum Albumin (BSA). Wells were incubated with increasing concentrations of biotin-GA in binding/washing buffer for 20 min at 30° C. Eu-streptavidin was used for the detection. Amounts of bound Eu-Streptavidin were quantified by measuring time-delayed fluorescence. Confirmed in three independent experiments.
FIG. 1C. […] Separate control wells were probed with biotinylated holo-transferrin (bio-Trn) to control for TR retention and possible denaturation over long incubation times. Independently confirmed in three experiments.
FIG. 1D. […] Binding of Biotin-GA and tritium-GA to Jurkat cells (hatched) or in-vitro TfR-binding (solid) in the presence of 1 μM GA, 50 μg/ml of apo-transferrin or 50 μg/ml of holo-transferrin is shown in this graph. […]
96-well plates were coated with soluble human transferrin receptor (shTR) (Merck Biosciences, Schwalbach, Germany) at 375 ng/well and blocked with Bovine Serum Albumin (BSA). […] Amounts of bound Eu-Streptavidin were quantified after incubation with Enhancement Solution (Perkin-Elmer, Wellesey, Mass.) by measuring time-delayed fluorescence on a Wallac Victor plate reader (Perkin-Elmer, Wellesey, Mass.) according to manufacturer's protocol. […] Kd and competition EC50 values were calculated using PRIZM software. […]

T47D cells = test: Transferrin receptor internalization, FITC anti-transferrin receptor immunofluorescence; format: cell-based, human; settings: 2 μM GA for 10 or 30 min
Procedure: FIG. 2A. […] T47D cells were treated with DMSO or 2 μM GA for 10 min (panels A and C respectively) and DMSO or 2 μM GA for 30 min (panels B and D, respectively) and further treated with FITC conjugated anti-transferrin receptor for 30 mins at 37° C. The cells were then fixed with methanol at −20° C. for 5 min, washed with PBS and mounted with Vectashield mounting medium. Representative of three independently confirmed experiments.
For detecting internalization of fluorescent transferrin receptor, T47D cells were plated on glass cover slips in a 6-well plate at a density of 3×10^5 cells per well on the day before the experiment. Cells were pretreated with 2 μM GA for 10 min at 37° C. washed with PBS, and then labeled for 30 min with 1 μg/ml FITC-labeled mouse anti-human transferrin receptor (RDI, Flanders, N.J.) at 37° C. The cells were then fixed with methanol at −20° C. for 5 min, washed with PBS and mounted with Vectashield mounting medium (Hard set with DAPI, Vector Laboratories, Inc., Burlingame, Calif.).

Jurkat cells = test: Cell surface transferrin receptor expression by FACS; format: cell-based; settings: 5 μM GA for 5 min
Procedure: FIG. 2B. […] Jurkat cells were treated with holo-transferrin (50 μg/ml) or GA (5 μM) alone for 5 min or pretreat for 5 min with holo-transferrin followed by 5 min GA (5 μM) treatment. Cells were then stained with FITC-conjugated anti-transferrin receptor antibody for 30 minutes at 4° C. After washing, cells were analyzed on a Becton Dickinson FACS Calibur. Data is shown as mean flourescence units (mfu). Confirmed in three independent experiments.
FACS Analysis: For cell surface staining of transferrin receptor, cells were washed with PBS+1% BSA and stained with FITC-conjugated anti-transferrin receptor antibody (RDI, Flanders, N.J.) for 30 minutes at 4° C. After washing, cells were analyzed on a FACS Calibur (BD Biosciences, San Jose, Calif.) using Cellquest software.

Transferrin Receptors, sequence (P02786 whole entry): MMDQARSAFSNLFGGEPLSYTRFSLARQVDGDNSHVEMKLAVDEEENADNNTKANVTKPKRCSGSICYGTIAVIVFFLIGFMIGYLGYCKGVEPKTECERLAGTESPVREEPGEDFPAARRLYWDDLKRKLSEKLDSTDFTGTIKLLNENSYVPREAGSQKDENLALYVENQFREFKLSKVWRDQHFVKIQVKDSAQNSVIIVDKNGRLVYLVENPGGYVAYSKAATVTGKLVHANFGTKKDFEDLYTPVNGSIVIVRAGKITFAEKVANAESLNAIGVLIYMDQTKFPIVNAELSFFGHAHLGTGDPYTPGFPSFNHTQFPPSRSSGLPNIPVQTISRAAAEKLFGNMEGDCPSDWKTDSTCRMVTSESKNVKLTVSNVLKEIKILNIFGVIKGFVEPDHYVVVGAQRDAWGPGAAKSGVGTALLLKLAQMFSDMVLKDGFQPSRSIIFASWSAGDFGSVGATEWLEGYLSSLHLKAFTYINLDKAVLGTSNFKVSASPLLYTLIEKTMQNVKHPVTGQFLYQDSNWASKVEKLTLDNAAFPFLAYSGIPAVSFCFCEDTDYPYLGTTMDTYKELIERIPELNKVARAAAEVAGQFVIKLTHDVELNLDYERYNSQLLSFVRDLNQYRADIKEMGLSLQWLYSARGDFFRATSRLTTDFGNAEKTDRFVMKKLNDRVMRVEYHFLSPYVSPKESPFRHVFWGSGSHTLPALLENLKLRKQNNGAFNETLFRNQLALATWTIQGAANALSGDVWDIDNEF

SMILES | inhibition at 20 µM (Transferrin Receptors) [%] | EC50 (T-47D) [µM] | Caspase potency EC50 (nM) (T-47D) | Caspase activity (Ratio) (T-47D) | Binding to transferrin receptor in vitro (in words) ([1]; shTR 375 ng/well, increasing concentrations of biotin-GA) | Displacement of receptor-bound GA (in words) ([1]; shTR-coated wells incubated with biotin-GA, washed, then incubated with GA) | Transferrin receptor internalization (in words) (T47D cells) | Transferrin receptor internalization by cell surface receptor expression (in words) (Jurkat cells)
C=CCC12C=C(C(=O)c3ccccc3)C3(CC=C)C(COC3(CC=C)C1=O)C2 (stereo not shown) [Example 27, 1,3,7-Triallyl-8-benzoyl-4-oxa-tricyclo[4.3.1.0^3,7]dec-8-en-2-one] | 11 |  | Inactive | 1.5 |  |  |  | 
C=CCC12CC3COC(CC=C)(C1=O)C3(CC=C)C=C2C(=O)c1ccccc1 (stereo not shown) [Example 28, 1,3,7-Triallyl-9-benzoyl-4-oxa-tricyclo[4.3.1.0^3,7]dec-8-en-2-one] | 8 |  | Inactive | 1.3 |  |  |  | 
CC(C)=CCC12OC(C)(C)C3CC(C=C4C(=O)C=C(c5ccccc5)OC431)C2=O (stereo not shown) [Example 31, 1-(3-Methyl-2-butenyl)-3,3-dimethyl-1,3,3a,4,5,10a-hexahydro-7,11-dioxo-9-phenyl-1,5-methano-furo[3,4-i]chromene] | 47 | 3.85 |  | 11.4 |  |  |  | 
CC(C)=CCC[C@]1(C)C=Cc2c(O)c3c(c(CC=C(C)C)c2O1)O[C@]12C(=C[C@@H]4C[C@H]1C(C)(C)O[C@@]2(C/C=C(/C)C(=O)O)C4=O)C3=O [GA, Gambogic acid] |  |  |  |  | binds transferrin receptor in vitro | can be displaced by active GA derivatives | interferes with receptor internalization | interferes with transferrin receptor (SEQ ID NO. 1) internalization

Continued, in another order:

inhibition at 20 µM (Transferrin Receptors) [%] | EC50 (T-47D) [µM] | Caspase potency EC50 (nM) (T-47D) | SMILES | Caspase activity (Ratio) (T-47D) | Binding to transferrin receptor in vitro (in words) ([1]; shTR 375 ng/well, increasing concentrations of biotin-GA) | Displacement of receptor-bound GA (in words) ([1]; shTR-coated wells incubated with biotin-GA, washed, then incubated with GA) | Transferrin receptor internalization (in words) (T47D cells) | Transferrin receptor internalization by cell surface receptor expression (in words) (Jurkat cells)
52 | 8.38 |  | C=CCC12OCC3CC(C=C4C(=O)c5ccccc5OC431)C2=O (stereo not shown) [Example 17, 1-Allyl-1,3,3a,4,5,12a-hexahydro-7,13-dioxo-1,5-methano-furo[3,4-d]xanthene] | 9.8 |  |  |  | 
42 | 6.6 |  | C=CCC12OCC3CC4(Oc5ccccc5C(=O)C4=CC31)C2=O (stereo not shown) [Example 18, 1-Allyl-1,3,3a,4,4a,11a-hexahydro-10,12-dioxo-1,4a-methano-furo[3,4-b]xanthene] | 2.9 |  |  |  | 
0 |  | Inactive | C=CCC12OCC3CC(CC4C(=O)c5ccccc5OC341)C2=O (stereo not shown) [Example 19, 1-allyl-1,3,3a,4,5,6,6a,12a-octahydro-7,13-dioxo-1,5-methano-furo[3,4-d]xanthene] | 1.0 |  |  |  | 
51 | 4.02 |  | CC(C)=CCC12OC(C)(C)C3CC(C=C4C(=O)c5ccccc5OC431)C2=O (stereo not shown) [Example 22, 1-(3-Methyl-2-butenyl)-3,3-dimethyl-1,3,3a,4,5,12a-hexahydro-7,13-dioxo-1,5-methano-furo[3,4-d]xanthene] | 9.9 |  |  |  | 
59 | 3.73 |  | CC(C)=CCC12OC(C)(C)C3CC4(Oc5ccccc5C(=O)C4=CC31)C2=O (stereo not shown) [Example 23, 1-(3-Methyl-2-butenyl)-3,3-dimethyl-1,3,3a,4,4a,11a-hexahydro-10,12-dioxo-1,4a-methano-furo[3,4-b]xanthene] | 14.1 |  |  |  | 
61 | 3.09 |  | CC(C)=CCC12OC(C)(C)C3CC4(OC(c5ccccc5)=CC(=O)C4=CC31)C2=O (stereo not shown) [Example 32, 1-(3-Methyl-2-butenyl)-3,3-dimethyl-1,3,3 a,4,4a,9a-hexahydro-8,10-dioxo-6-phenyl-1,4a-methano-furo[3,4-g]chromene] | 10.6 |  |  |  | 
